The test system of data set [1] is anti-3MGA-mAb. Description: Dot-blot analysis using anti-3MGA-mAb. It is filed as binding. Particulars: 1 µg spotted on PES membrane, imaging analysis. Here is the method:
We confirmed the cross-reactivity of anti-3MGA-mAb against these GL metabolites. GL, GA, 3MGA, and compounds 1, 2, and 3 (1 µg each) were spotted on a polyethersulfone (PES) membrane, fixed onto the membrane, and colored using an anti-3MGA-mAb (Fig. 5A). […] Thus, the anti-3MGA-mAb cross-reacted to some extent with other metabolites of GL.
Figure 5 Dot-blot analysis and ELISA detection range of GL metabolites using anti-3MGA-monoclonal antibody (mAb). GL metabolites (1 µg each) were spotted on a PES membrane, and colored using an anti-3MGA-mAb (A). Competitive ELISA using anti-3MGA-mAb for GL metabolites was performed. Data are represented from a single analysis (n = 1) (B). […] Data are represented as mean ± S.D. (n = 3). Two-way ANOVA indicated a significant difference between GA and 3 (F1,36 = 4441, P < 0.001), concentrations (F8,36 = 315, P < 0.001), and their interactions (F8,36 = 281, P < 0.001). The calibrated line for the absorbance-concentration profile of 3 was calculated by the linear least-squares method, and the regression formula is shown in graph (C).
Anti-3MGA-mAb and 3MGA-human serum albumin (HSA)-conjugate were developed by the same protocols established in our previous studies[22],[23]. GL, GA, 3MGA, 1, 2, and 3 (1 µg each) were spotted on a Mustang^TM E positively charged PES membrane (Pall Co., East Hills, NY, USA). The membrane was then immersed into 0.1 M MES buffer (pH 4.7) containing 2% EDC and 1% NHS, and kept at room temperature for 1 h to activate the carboxyl group. After washing with distilled water, PBS containing 1% bovine serum albumin (BSA) was added to the membrane, which was shaken at room temperature for 2 h for fixation. Next, the membrane was blocked with PBS containing 5% skim milk (Morinaga-milk, Tokyo, Japan) and 0.1% Tween 20 at 4 °C overnight to reduce nonspecific adsorption. After washing twice with PBS containing 0.1% Tween 20 (T-PBS) for 5 min, the membrane was incubated with anti-3MGA-mAb and kept at room temperature for 3 h with constant agitation. The membrane was then washed twice with T-PBS for 5 min and treated with 1:500 diluted horseradish peroxidase (HRP)-labeled goat anti-mouse IgG (whole molecule; Sigma, St. Louis, MO, USA) antibody in T-PBS for 1 h with gentle shaking. Finally, the membrane was washed twice with T-PBS and once with PBS, and exposed to 1 mg/ml of freshly prepared 4-chloro-1-naphthol-0.03% H2O2 in PBS for 15 min at room temperature. The reaction was stopped by washing with distilled water, and the immunostained PES membrane was allowed to dry and then photographed. The positively stained areas were measured using Image J 1.46r (http://imageJ.nih.gov/ij).

Data set [2] is described as follows: Concentrations of GL metabolites in plasma of a patient with pseudoaldosteronism (LC-MS/MS). The data set is classed as in vivo, human. The conditions noted are these: for concentration at 0 day: female; for concentration at 0 day / plasma concentration, day 0: patient with licorice-induced pseudoaldosteronism, day 0; for concentration at 5 day / plasma concentration, day 5: 5 days after stopping the Kampo formula; for concentration at 13 day: day 13. The text has this: The patient was a person who had taken a Kampo formula containing licorice for 3 years (1.5 g of licorice for 1 year and 2 months, and 3 g for 1 year and 10 months). On day 0, we found a low plasma potassium level (2.1 mEq/l) and a high creatinine kinase level (364 U/l). Since low plasma renin activity and a low aldosterone level were also found, the patient was diagnosed with pseudoaldosteronism due to licorice. The administration of the Kampo formula was stopped and potassium supplementation of up to 100 mEq/day was started. In the plasma collected on day 0, we detected compound 3 at 8.6 µM, GA at 1.3 µM, and 2 at 87 nM, while 1, GL and 3MGA were not detected. On day 5, the plasma potassium level was still 2.1 mEq/l and potassium supplementation was continued. However, the plasma concentrations of 3 and GA had decreased to 3.6 µM and 0.65 µM, respectively. 2, 1, GL, and 3MGA were not detected. On day 13, the plasma potassium level was increased to 2.8 mEq/l, and the concentrations of 3 and GA were 61 nM and 11 nM, respectively. On day 14, the plasma potassium level was 3.4 mEq/l, and the concentration of 3 was 57 nM; GA was not detected. On day 18, the plasma potassium level had recovered to a normal level (4.9 mEq/l), so potassium supplementation was stopped.
Female SD rats or EHBRs (9-week-old) were anesthetized by an intraperitoneal (i.p.) injection of urethane (1 g/kg) and their jugular veins were exposed. GA suspended in 0.5% CMC was then administered orally (200 mg/kg) to the unconscious rats, and blood samples were collected from the jugular vein; urine samples were collected using a metabolic cage at an appropriate time over a 12-h period. […] Feces were homogenized in phosphate-buffered saline (PBS; 0.15 M, pH 7.2), centrifuged (1.2 × 10^4 g, 10 min), and the supernatants were collected. After 1 week as a washout period, female SD rats were anesthetized by an i.p. injection of urethane (1 g/kg) and their biliary tract was cannulated. GA (0.2 mg/kg) was injected into the jugular vein, and the bile was collected every hour for 4 h. Aliquots (10 µl) of plasma, urine, homogenate of feces, or bile were mixed with 20 µl of subtilisin (0.91 U/ml) and incubated at 37 °C for 30 min, followed by the addition of 70 µl of astragaloside IV solution (1 µg/ml in ethanol containing 0.5% formic acid, used as internal standard), and kept at −20 °C for 30 min. […] The transitions (precursor to daughter) monitored and retention times were as follows: ESI(+) 743.4 to 567.5 m/z for compound 1 (5.5 min), ESI(−) 565.5 to 96.5 m/z for 2 (6.2 min), ESI(−) 549.5 to 96.5 m/z for 3 (8.1 min), ESI(+) 647.6 to 453.6 m/z for 3MGA (9.2 min), ESI(+) 471.3 to 91.0 m/z for GA (8.8 min), ESI(+) 823.5 to 453.6 m/z for GL (10.8 min), and ESI(+) 785.4 to 143.0 m/z for astragaloside IV (3.0 min). Linear regressions over the concentration range of 32 nM to 20 µM for each compound were examined using the peak-area ratio of the compounds to their internal standards and the least-squares method (r^2 > 0.98).
The patient was a person. They provided written informed consent to the use of their blood and urine samples for this study, which was approved by the Independent Ethics Committee of Kameda General Hospital, in accordance with the Declaration of Helsinki. Their anamnesis was follows: hypertension, systemic lupus erythematosus, and antiphospholipid antibody syndrome (for 15 years), necrotic pulmonary aspergillosis (6 years ago), cerebral infarction (14 and 4 years ago, two times), and stomach cancer (3 years ago). After the operation for stomach cancer, the patient had been treated with Kracie Juzentaihoto Extract Granules for Ethical Use (Kracie Pharmaceuticals., Tokyo, Japan). […]

On to `CC1(C)[C@@H](OS(=O)(=O)O)CC[C@]2(C)[C@H]3C(=O)C=C4[C@@H]5C[C@@](C)(C(=O)O)CC[C@]5(C)CC[C@@]4(C)[C@]3(C)CC[C@@H]12` [compound 3, 18β-glycyrrhetyl-3-O-sulfate], for which the “area of positive staining in dot-blot” value in data set [1] is on record as 146 pixels. In data set [2] (human, plasma, oral), the concentration at 0 day came to 8600 nM. Also, in data set [2] (human, plasma, oral, patient), the concentration at 5 day was determined as 3600 nM and the concentration at 13 day turned out to be 61 nM. The concentration at 14 day in data set [2] (human, plasma, oral, patient, day 14) came out at 57 nM. Further, the “plasma concentration, day 18” value in data set [2] (patient, day 18) is given as “below the detectable limit”.
Take `CC1(C)[C@@H](O)CC[C@]2(C)[C@H]3C(=O)C=C4[C@@H]5C[C@@](C)(C(=O)O)CC[C@]5(C)CC[C@@]4(C)[C@]3(C)CC[C@@H]12` [GA, glycyrrhetinic acid, reference compound]: in data set [1], the “area of positive staining in dot-blot” value stood at 97 pixels. For the same compound, the concentration at 0 day in data set [2] (human, plasma, oral) was 1300 nM. Also, in data set [2] (human, plasma, oral, patient), the concentration at 5 day was 650 nM and the concentration at 13 day was determined as 11 nM. Further, the “plasma concentration, day 14” value in data set [2] (patient, day 14) is “not detected”.
In the case of `CC1(C)[C@@H](O[C@@H]2O[C@H](C(=O)O)[C@@H](O)[C@H](O)[C@H]2O)CC[C@]2(C)[C@H]3C(=O)C=C4[C@@H]5C[C@@](C)(C(=O)O)CC[C@]5(C)CC[C@@]4(C)[C@]3(C)CC[C@@H]12` [3MGA, 3-monoglucuronyl glycyrrhetinic acid, reference compound], in data set [1], the “area of positive staining in dot-blot” value is given as 3395 pixels. Further, in data set [2] (patient plasma sample, LC-MS/MS detection limit), the “plasma concentration (below detection limit)” value is on record as “less than 3.2 nM”. The “plasma concentration, day 0” value in data set [2] was “not detected”. Also, the “plasma concentration, day 5” value in data set [2] (patient) is “not detected”.
On to `CC1(C)[C@@H](OS(=O)(=O)O)CC[C@]2(C)[C@H]3C(=O)C=C4[C@@H]5C[C@@](C)(C(=O)O[C@@H]6O[C@H](C(=O)O)[C@@H](O)[C@H](O)[C@H]6O)C[C@H](O)[C@]5(C)CC[C@@]4(C)[C@]3(C)CC[C@@H]12` [compound 1, 22α-hydroxy-18β-glycyrrhetyl-3-O-sulfate-30-glucuronide], for which, in data set [1], the “area of positive staining in dot-blot” value was 606 pixels. Also, the “plasma concentration, day 0” value in data set [2] is on record as “not detected”. Moreover, in data set [2] (patient), the “plasma concentration, day 5” value is listed as “not detected”.
Consider `CC1(C)[C@@H](OS(=O)(=O)O)CC[C@]2(C)[C@H]3C(=O)C=C4[C@@H]5C[C@@](C)(C(=O)O)C[C@H](O)[C@]5(C)CC[C@@]4(C)[C@]3(C)CC[C@@H]12` [compound 2, 22α-hydroxy-18β-glycyrrhetyl-3-O-sulfate], for which, in data set [1], the “area of positive staining in dot-blot” value was found to be 79 pixels. The concentration at 0 day in data set [2] (human, plasma, oral) amounted to 87 nM. In addition, in data set [2] (patient), the “plasma concentration, day 5” value is “not detected”.
